The values that follow are results of earlier work, collected in patent US20140194400A1, “Nasal Pharmaceutical Formulation” (Meda Pharma GmbH & Co., Kg, priority 2011, published 2014).

As for `C[C@@H]1C[C@H]2[C@@H]3C[C@H](F)C4=CC(=O)C=C[C@]4(C)[C@@]3(F)[C@@H](O)C[C@]2(C)[C@@]1(O)C(=O)SCF` [fluticasone], the oral absorption result is recorded as “about 1%”.
